Experimental data as given in patent publication US6362369B1, “Phthalic acid diamide derivatives fluorine-containing aniline compounds as starting material, agricultural and horticultural insecticides, and a method for application of the insecticides” (Nihon Nohyaku Co., Ltd., priority 1997, dated 2002).

Legend:
[1] = system: rice leafroller (Cnaphalocrocis medinalis); assay: Insecticidal effect on rice leafroller (Test Example 3); type: in vivo; conditions: 500 ppm, rice lamina dip, third-instar larvae, four days after inoculation, 25° C., humidity 70%
Outline: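 Groups of 10 third-instar larvae, in triplicate, are placed on air-dried lamina resting on wet filter paper. Incubation runs four days at 25° C with 70% humidity before survivors and dead are tallied.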

[2] = system: diamondback moth (Plutella xylostella); assay: Insecticidal effect on diamondback moth (Test Example 1); type: in vivo; conditions: mortality judged according to the criterion shown in Test Example 1
Outline: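 Eggs laid by adult moths on Chinese cabbage seedlings, which were immersed in test solution, air-dried and kept at 25 °C. Hatched insects counted 6 days after immersion and mortality calculated, with effect graded by criterion; triplicate groups of 10 insects.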

| SMILES | Insecticidal effect on rice leafroller (Test Example 3), judged grade [1] | Insecticidal effect on diamondback moth (Test Example 1), judged grade [2] |
| --- | --- | --- |
| Cc1cc(OC(F)(F)C(F)OC(F)(F)F)ccc1NC(=O)c1cccc(F)c1C(=O)NC(C)C (stereo not drawn) [compound 515] | C (89-80) | A (100) |
| Cc1cc(SC(C)C)ccc1NC(=O)c1cccc(F)c1C(=O)NC(C)C [compound 518] | B (99-90) | A (100) |
| CC(C)NC(=O)c1c(F)cccc1C(=O)Nc1ccc2c(c1)OCO2 [compound 528] | A (100) | A (100) |
| Cc1ccc(Cl)cc1NC(=O)c1ccc(F)cc1C(=O)NC(C)C [compound 530] | D (79-50) | A (100) |
| Cc1cc(OC(F)F)ccc1NC(=O)c1ccc(F)cc1C(=O)NC(C)C [compound 531] | A (100) | A (100) |
| Cc1cc(Cl)ccc1NC(=O)c1cc(F)ccc1C(=O)NC(C)C [compound 532] | A (100) | A (100) |
| Cc1cc(OC(F)F)ccc1NC(=O)c1cc(F)ccc1C(=O)NC(C)C [compound 534] | A (100) | A (100) |
| CC(C)NC(=O)c1cccc(F)c1C(=O)Nc1cccc(Cl)c1Cl [compound 543] | A (100) | A (100) |
| Cc1c(Cl)cccc1NC(=O)c1c(F)cccc1C(=O)NC(C)C [compound 544] | A (100) | A (100) |
| Cc1cc(Cl)ccc1NC(=O)c1c(F)cccc1C(=O)NC(C)C [compound 545] | A (100) | A (100) |
| Cc1ccc(Cl)cc1NC(=O)c1c(F)cccc1C(=O)NC(C)C [compound 546] | A (100) | A (100) |
| Cc1cc(C(F)(F)C(F)(F)F)ccc1NC(=O)c1c(F)cccc1C(=O)NC(C)C [compound 551] | A (100) | A (100) |
| Cc1cc(OC(F)(F)C(Cl)(Cl)Cl)ccc1NC(=O)c1c(F)cccc1C(=O)NC(C)C [compound 552] | B (99-90) | A (100) |
| Cc1cc(OC(F)(F)C(F)(F)Br)ccc1NC(=O)c1c(F)cccc1C(=O)NC(C)C [compound 554] | A (100) | A (100) |
| Cc1cc(C(F)(F)C(F)(F)C(F)(F)F)ccc1NC(=O)c1c(F)cccc1C(=O)NC(C)C [compound 555] | B (99-90) | A (100) |
| CC(C)NC(=O)c1cccc(F)c1C(=O)Nc1ccc(OC(F)(F)F)cc1Cl [compound 562] | A (100) | A (100) |
| CC(C)NC(=O)c1cccc(F)c1C(=O)Nc1ccc(OC(F)(F)F)cc1Br [compound 563] | A (100) | A (100) |
| Cc1cc(OC(F)(F)F)ccc1NC(=O)c1c(F)cccc1C(=O)NC(C)C [compound 564] | B (99-90) | A (100) |
| Cc1cc(OC(F)(F)Br)ccc1NC(=O)c1c(F)cccc1C(=O)NC(C)C [compound 565] | A (100) | A (100) |
| Cc1cc(OC(F)(F)C(F)F)ccc1NC(=O)c1c(F)cccc1C(=O)NC(C)C [compound 566] | B (99-90) | A (100) |
| Cc1cc(Sc2ccc(Cl)cc2)ccc1NC(=O)c1c(F)cccc1C(=O)NC(C)C [compound 575] | A (100) | A (100) |
| Cc1cc(Oc2ccc(C(F)(F)F)cn2)ccc1NC(=O)c1c(F)cccc1C(=O)NC(C)C [compound 576] | C (89-80) | A (100) |
| Cc1cc(Oc2ncc(C(F)(F)F)cc2Cl)ccc1NC(=O)c1c(F)cccc1C(=O)NC(C)C [compound 577] | A (100) | A (100) |

| SMILES | Insecticidal effect on rice leafroller (Test Example 3), judged grade [1] | Insecticidal effect on diamondback moth (Test Example 1), judged grade [2] |
| --- | --- | --- |
| CC(C)NC(=O)c1cccc(F)c1C(=O)Nc1ccc2c(c1)OCO2 [compound 580] | A (100) | A (100) |
| Cc1cc(Cl)ccc1NC(=O)c1c(F)ccc(F)c1C(=O)NC(C)C [compound 582] | A (100) | A (100) |
| CC(C)NC(=O)c1c(C(=O)Nc2ccccc2)cccc1[N+](=O)[O-] [compound 585] | A (100) | A (100) |
| CC(C)NC(=O)c1c(C(=O)Nc2ccccc2Cl)cccc1[N+](=O)[O-] [compound 586] | D (79-50) | A (100) |
| CC(C)NC(=O)c1c(C(=O)Nc2ccccc2Br)cccc1[N+](=O)[O-] [compound 589] | A (100) | A (100) |
| CC(C)NC(=O)c1c(C(=O)Nc2ccc([N+](=O)[O-])cc2)cccc1[N+](=O)[O-] [compound 596] | D (79-50) | D (79-50) |
| CCc1ccccc1NC(=O)c1cccc([N+](=O)[O-])c1C(=O)NC(C)C [compound 602] | A (100) | A (100) |
| CC(C)NC(=O)c1c(C(=O)Nc2ccccc2C(C)C)cccc1[N+](=O)[O-] [compound 603] | C (89-80) | B (99-90) |
| CC(C)NC(=O)c1c(C(=O)Nc2ccc(C(C)C)cc2)cccc1[N+](=O)[O-] [compound 604] | D (79-50) | A (100) |
| CC(C)NC(=O)c1c(C(=O)Nc2ccc(C(F)(F)C(F)(F)C(F)(F)C(F)(F)F)cc2)cccc1[N+](=O)[O-] [compound 611] | A (100) | A (100) |
| COc1ccccc1NC(=O)c1cccc([N+](=O)[O-])c1C(=O)NC(C)C [compound 612] | D (79-50) | A (100) |
| CC(C)NC(=O)c1c(C(=O)Nc2cccc(OC(F)F)c2)cccc1[N+](=O)[O-] [compound 616] | D (79-50) | A (100) |
| CC(C)NC(=O)c1c(C(=O)Nc2cccc(SC(F)(F)F)c2)cccc1[N+](=O)[O-] [compound 623] | A (100) | A (100) |
| CC(C)NC(=O)c1c(C(=O)Nc2cc(Cl)ccc2Cl)cccc1[N+](=O)[O-] [compound 634] | D (79-50) | A (100) |
| CC(C)NC(=O)c1c(C(=O)Nc2ccc(F)c(Cl)c2)cccc1[N+](=O)[O-] [compound 643] | A (100) | A (100) |
| Cc1cccc(NC(=O)c2cccc([N+](=O)[O-])c2C(=O)NC(C)C)c1C [compound 647] | B (99-90) | A (100) |
| Cc1ccc(C)c(NC(=O)c2cccc([N+](=O)[O-])c2C(=O)NC(C)C)c1 [compound 649] | C (89-80) | A (100) |
| Cc1ccc(NC(=O)c2cccc([N+](=O)[O-])c2C(=O)NC(C)C)c(Cl)c1 [compound 656] | A (100) | A (100) |
| CC(C)NC(=O)c1c(C(=O)Nc2ccc(C(F)(F)F)cc2Cl)cccc1[N+](=O)[O-] [compound 660] | A (100) | A (100) |
| CC(C)NC(=O)c1c(C(=O)Nc2cc(C(F)(F)F)ccc2Cl)cccc1[N+](=O)[O-] [compound 661] | D (79-50) | B (99-90) |
| Cc1cccc(Cl)c1NC(=O)c1cccc([N+](=O)[O-])c1C(=O)NC(C)C [compound 666] | D (79-50) | A (100) |
| Cc1ccc(NC(=O)c2cccc([N+](=O)[O-])c2C(=O)NC(C)C)c(C)c1Cl [compound 670] | D (79-50) | A (100) |
